Assay results from ChEMBL document CHEMBL3991601, “The target landscape of clinical kinase drugs” (Science, 2017).
The source made the active and inactive calls.

Assays:
[1] = target: T1, Adenine phosphoribosyltransferase (Homo sapiens, UniProt P07741)
T1 sequence (P07741 whole entry): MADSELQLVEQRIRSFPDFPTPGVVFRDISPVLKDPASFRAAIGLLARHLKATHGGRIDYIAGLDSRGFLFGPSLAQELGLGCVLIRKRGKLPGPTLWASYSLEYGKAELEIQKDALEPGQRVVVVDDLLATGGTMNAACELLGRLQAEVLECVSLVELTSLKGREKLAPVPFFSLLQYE

[2] = target: Epidermal growth factor receptor (Homo sapiens, UniProt P00533)
[3] = target: T2, Eukaryotic translation initiation factor 5B (Homo sapiens, UniProt O60841)
T2 sequence (O60841 whole entry): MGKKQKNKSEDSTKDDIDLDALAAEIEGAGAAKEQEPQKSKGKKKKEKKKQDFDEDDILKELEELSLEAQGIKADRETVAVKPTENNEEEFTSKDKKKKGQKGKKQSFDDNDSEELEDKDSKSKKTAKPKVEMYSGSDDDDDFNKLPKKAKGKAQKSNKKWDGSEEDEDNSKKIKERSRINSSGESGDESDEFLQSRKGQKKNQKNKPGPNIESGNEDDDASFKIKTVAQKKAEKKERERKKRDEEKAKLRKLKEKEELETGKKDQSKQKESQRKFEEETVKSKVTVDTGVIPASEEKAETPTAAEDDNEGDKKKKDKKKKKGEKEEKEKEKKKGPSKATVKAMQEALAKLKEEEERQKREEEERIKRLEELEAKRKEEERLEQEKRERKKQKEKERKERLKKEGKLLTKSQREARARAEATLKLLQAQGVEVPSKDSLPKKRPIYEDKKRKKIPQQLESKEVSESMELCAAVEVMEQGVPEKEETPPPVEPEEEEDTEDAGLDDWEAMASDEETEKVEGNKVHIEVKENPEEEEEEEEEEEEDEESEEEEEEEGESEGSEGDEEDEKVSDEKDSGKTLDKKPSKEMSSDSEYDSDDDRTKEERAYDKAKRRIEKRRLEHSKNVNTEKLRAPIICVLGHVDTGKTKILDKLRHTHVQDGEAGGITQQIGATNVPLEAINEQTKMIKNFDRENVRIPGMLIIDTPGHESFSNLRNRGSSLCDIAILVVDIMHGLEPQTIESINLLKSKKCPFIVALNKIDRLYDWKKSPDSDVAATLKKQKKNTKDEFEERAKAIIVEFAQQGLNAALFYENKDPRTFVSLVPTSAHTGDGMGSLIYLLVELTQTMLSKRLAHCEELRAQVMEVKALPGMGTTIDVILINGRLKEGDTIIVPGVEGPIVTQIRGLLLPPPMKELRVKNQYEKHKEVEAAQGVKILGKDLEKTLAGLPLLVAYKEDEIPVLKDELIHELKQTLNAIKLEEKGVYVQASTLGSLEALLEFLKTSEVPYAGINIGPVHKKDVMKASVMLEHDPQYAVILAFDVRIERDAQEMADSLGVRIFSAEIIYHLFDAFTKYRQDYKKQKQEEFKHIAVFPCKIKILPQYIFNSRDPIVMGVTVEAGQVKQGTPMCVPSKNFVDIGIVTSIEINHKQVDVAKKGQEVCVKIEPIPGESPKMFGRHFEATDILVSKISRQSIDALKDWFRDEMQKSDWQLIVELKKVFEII

[4] = target: T3, Inhibitor of nuclear factor kappa-B kinase subunit epsilon (Homo sapiens, UniProt Q14164)
T3 sequence (Q14164 whole entry): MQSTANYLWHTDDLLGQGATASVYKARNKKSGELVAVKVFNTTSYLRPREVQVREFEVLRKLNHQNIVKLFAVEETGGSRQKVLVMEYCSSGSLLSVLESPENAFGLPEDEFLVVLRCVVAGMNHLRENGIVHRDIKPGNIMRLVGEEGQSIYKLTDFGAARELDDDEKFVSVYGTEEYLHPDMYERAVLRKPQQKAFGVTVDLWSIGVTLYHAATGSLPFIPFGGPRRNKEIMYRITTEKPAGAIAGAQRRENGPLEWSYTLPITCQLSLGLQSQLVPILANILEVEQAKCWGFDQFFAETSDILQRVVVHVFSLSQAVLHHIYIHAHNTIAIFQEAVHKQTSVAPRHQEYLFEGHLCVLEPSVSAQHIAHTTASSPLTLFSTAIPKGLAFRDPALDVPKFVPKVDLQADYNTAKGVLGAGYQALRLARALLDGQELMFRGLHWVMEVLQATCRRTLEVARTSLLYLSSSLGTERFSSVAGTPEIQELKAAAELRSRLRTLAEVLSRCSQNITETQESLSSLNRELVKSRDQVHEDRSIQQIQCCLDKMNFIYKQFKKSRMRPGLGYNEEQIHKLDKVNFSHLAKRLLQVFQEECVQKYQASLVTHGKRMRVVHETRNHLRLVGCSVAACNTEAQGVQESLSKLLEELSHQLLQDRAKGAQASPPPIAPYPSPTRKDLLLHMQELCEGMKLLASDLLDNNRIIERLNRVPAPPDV

[5] = target: Hepatocyte growth factor receptor (Homo sapiens, UniProt P08581)
[6] = target: High affinity nerve growth factor receptor (Homo sapiens, UniProt P04629)
[7] = target: PAS domain-containing serine/threonine-protein kinase (Homo sapiens, UniProt Q96RG2)
[8] = target: Serine/threonine-protein kinase N3 (Homo sapiens, UniProt Q6P5Z2)
[9] = target: Proto-oncogene tyrosine-protein kinase receptor Ret (Homo sapiens, UniProt P07949)
[10] = target: Dual specificity testis-specific protein kinase 1 (Homo sapiens, UniProt Q15569)
[11] = target: Serine/threonine-protein kinase MRCK gamma (Homo sapiens, UniProt Q6DT37)
[12] = target: Membrane-associated progesterone receptor component 1 (Homo sapiens, UniProt O00264)
[13] = target: Serine/threonine-protein kinase ATR (Homo sapiens, UniProt Q13535)
Note: in the data inactive means no Kd found up to 30 µM.

Chain of Hepatocyte growth factor receptor (P08581 whole entry): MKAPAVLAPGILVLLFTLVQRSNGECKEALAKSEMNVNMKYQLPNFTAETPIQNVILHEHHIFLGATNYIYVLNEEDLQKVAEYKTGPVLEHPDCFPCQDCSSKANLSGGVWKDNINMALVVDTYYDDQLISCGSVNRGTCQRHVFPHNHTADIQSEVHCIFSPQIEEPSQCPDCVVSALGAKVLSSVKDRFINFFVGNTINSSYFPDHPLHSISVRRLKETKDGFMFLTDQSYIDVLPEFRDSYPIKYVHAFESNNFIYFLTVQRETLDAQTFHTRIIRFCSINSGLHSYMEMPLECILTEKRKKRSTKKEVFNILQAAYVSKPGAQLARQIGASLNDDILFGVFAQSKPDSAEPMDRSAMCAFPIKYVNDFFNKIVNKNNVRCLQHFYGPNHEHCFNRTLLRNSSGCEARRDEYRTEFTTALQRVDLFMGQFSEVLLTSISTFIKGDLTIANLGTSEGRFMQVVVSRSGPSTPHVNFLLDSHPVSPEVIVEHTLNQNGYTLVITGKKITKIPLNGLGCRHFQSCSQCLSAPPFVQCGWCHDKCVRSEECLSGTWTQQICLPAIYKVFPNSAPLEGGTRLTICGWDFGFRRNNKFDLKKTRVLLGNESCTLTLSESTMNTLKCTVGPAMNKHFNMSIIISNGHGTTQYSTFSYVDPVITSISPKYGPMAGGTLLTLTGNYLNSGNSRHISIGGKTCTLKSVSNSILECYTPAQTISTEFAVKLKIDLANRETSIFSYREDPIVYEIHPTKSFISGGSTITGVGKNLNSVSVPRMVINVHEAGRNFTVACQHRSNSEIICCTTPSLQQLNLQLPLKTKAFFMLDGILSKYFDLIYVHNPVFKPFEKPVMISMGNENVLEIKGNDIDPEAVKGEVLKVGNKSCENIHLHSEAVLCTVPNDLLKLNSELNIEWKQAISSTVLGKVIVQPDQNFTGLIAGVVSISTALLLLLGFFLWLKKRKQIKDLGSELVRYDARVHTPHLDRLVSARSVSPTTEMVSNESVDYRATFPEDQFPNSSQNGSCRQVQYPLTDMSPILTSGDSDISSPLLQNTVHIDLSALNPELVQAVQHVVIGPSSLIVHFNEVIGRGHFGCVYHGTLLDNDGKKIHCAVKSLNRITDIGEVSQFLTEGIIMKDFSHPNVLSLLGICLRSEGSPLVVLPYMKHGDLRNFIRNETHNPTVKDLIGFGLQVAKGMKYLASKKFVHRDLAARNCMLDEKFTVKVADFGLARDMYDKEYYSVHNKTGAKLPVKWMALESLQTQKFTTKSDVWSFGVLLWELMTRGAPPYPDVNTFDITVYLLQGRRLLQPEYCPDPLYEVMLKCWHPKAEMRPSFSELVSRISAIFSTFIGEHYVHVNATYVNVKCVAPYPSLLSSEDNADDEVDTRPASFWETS
Chain of Membrane-associated progesterone receptor component 1 (O00264 whole entry): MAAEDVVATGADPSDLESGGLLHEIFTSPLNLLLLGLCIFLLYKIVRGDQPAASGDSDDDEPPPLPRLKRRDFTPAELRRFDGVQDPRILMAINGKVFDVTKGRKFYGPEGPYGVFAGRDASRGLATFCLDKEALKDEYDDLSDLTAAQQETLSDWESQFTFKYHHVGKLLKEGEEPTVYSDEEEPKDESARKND
Chain of Serine/threonine-protein kinase N3 (Q6P5Z2 whole entry): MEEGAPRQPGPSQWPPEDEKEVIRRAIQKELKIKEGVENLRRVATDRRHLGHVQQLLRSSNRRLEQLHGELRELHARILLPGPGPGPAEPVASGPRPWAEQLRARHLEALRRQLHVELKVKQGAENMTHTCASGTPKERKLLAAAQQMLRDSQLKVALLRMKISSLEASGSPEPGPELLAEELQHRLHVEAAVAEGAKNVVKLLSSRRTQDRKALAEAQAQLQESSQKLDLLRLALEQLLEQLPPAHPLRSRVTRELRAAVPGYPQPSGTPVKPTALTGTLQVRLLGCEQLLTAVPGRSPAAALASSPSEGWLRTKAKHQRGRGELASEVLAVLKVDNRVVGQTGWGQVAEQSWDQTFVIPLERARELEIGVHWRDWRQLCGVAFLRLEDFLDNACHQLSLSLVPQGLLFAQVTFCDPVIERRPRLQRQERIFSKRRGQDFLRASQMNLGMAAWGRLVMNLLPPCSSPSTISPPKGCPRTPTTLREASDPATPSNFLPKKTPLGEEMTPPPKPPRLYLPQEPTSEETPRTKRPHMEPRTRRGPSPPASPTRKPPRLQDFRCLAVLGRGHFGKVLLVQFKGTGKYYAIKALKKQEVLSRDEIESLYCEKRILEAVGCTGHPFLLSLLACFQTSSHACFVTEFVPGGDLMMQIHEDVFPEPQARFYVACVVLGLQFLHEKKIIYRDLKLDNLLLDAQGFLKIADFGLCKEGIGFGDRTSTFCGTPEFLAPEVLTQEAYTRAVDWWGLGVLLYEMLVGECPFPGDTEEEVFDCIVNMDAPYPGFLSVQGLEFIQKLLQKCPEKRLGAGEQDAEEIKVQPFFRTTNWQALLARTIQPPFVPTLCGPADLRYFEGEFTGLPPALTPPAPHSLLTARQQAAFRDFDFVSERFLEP
Chain of Dual specificity testis-specific protein kinase 1 (Q15569 whole entry): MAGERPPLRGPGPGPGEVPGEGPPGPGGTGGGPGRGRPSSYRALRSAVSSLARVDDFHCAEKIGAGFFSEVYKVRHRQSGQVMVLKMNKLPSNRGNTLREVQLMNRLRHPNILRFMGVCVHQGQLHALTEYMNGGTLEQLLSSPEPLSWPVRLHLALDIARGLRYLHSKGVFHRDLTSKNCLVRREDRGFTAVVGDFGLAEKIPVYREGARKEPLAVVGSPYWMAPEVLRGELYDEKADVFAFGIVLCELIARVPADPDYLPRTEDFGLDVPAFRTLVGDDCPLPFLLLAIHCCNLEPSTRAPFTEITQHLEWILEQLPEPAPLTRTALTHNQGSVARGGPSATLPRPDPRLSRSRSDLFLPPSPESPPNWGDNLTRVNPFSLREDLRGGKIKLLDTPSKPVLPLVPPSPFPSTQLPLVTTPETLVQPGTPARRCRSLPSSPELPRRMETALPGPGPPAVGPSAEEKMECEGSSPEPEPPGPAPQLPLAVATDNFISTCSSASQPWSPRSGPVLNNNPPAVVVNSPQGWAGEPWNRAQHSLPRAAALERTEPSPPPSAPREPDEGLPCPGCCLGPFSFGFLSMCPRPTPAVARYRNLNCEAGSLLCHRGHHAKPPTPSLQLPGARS
Chain of Epidermal growth factor receptor (P00533 whole entry): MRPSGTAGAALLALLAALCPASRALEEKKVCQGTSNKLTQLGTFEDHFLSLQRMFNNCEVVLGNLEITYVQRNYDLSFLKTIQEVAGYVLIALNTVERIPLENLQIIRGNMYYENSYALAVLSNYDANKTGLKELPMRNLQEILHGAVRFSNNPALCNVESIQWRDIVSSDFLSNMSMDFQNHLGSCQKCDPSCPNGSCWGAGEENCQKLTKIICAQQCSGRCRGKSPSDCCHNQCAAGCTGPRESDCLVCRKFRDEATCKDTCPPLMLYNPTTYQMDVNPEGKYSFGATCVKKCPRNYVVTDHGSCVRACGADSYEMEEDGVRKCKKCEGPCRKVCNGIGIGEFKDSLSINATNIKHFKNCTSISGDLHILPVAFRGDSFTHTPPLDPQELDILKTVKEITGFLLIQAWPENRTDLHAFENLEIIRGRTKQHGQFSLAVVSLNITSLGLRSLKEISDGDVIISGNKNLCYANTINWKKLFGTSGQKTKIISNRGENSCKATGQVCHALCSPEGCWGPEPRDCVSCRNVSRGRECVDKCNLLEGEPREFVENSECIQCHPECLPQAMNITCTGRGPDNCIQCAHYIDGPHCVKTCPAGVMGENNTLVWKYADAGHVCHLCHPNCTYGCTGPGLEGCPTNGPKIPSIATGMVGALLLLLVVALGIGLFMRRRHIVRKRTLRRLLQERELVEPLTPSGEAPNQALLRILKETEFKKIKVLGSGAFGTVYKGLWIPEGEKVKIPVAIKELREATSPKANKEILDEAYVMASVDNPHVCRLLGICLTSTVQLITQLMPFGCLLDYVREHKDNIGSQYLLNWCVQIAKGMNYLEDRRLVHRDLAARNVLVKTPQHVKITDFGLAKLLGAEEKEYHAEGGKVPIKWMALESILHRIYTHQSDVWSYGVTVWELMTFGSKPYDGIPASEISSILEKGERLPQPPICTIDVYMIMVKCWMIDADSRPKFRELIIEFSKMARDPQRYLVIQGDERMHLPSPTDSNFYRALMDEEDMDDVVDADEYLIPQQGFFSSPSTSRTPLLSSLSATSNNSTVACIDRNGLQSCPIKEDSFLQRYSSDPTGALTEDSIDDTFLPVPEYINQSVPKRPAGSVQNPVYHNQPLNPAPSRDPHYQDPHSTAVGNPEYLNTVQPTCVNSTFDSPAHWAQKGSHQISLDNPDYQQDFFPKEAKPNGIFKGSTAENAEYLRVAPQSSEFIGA

| Kd [1] | Kd [2] | Kd [3] | Kd [4] | Kd [5] | Kd [6] | Kd [7] | Kd [8] | Kd [9] | Kd [10] | Kd [11] | Kd [12] | SMILES | Kd [13] |
| --- | --- | --- | --- | --- | --- | --- | --- | --- | --- | --- | --- | --- | --- |
| > 30 µM (inactive) | > 30 µM (inactive) | > 30 µM (inactive) | > 30 µM (inactive) | > 30 µM (inactive) | > 30 µM (inactive) | > 30 µM (inactive) | > 30 µM (inactive) | – | – | > 30 µM (inactive) | > 30 µM (inactive) | CNC(=O)c1cc(Oc2ccc(NC(=O)Nc3ccc(Cl)c(C(F)(F)F)c3)c(F)c2)ccn1 [REGORAFENIB] | – |
| – | – | > 30 µM (inactive) | > 30 µM (inactive) | > 30 µM (inactive) | > 30 µM (inactive) | > 30 µM (inactive) | > 30 µM (inactive) | 0.39 µM (active) | > 30 µM (inactive) | > 30 µM (inactive) | > 30 µM (inactive) | CNC(=O)CN1CCC(Oc2cc3c(Nc4cccc(Cl)c4F)ncnc3cc2OC)CC1 [SAPITINIB] | – |
| > 30 µM (inactive) | > 30 µM (inactive) | > 30 µM (inactive) | > 30 µM (inactive) | – | – | – | – | > 30 µM (inactive) | > 30 µM (inactive) | – | > 30 µM (inactive) | C[C@@H](c1ccc2nccn2c1)n1nnc2ncc(-c3cnn(C)c3)nc21 [SAVOLITINIB] | > 30 µM (inactive) |
| > 30 µM (inactive) | > 30 µM (inactive) | – | > 30 µM (inactive) | > 30 µM (inactive) | > 30 µM (inactive) | > 30 µM (inactive) | > 30 µM (inactive) | 3.22 µM (active) | > 30 µM (inactive) | > 30 µM (inactive) | – | CN1CCC(CNc2ccc3ncc(-c4cccc(OC(F)(F)F)c4)n3n2)CC1 [SGI-1776] | – |
| > 30 µM (inactive) | > 30 µM (inactive) | > 30 µM (inactive) | > 30 µM (inactive) | > 30 µM (inactive) | > 30 µM (inactive) | > 30 µM (inactive) | > 30 µM (inactive) | > 30 µM (inactive) | > 30 µM (inactive) | > 30 µM (inactive) | > 30 µM (inactive) | CC(=O)Nc1cccc(-n2c(=O)n(C3CC3)c(=O)c3c(Nc4ccc(I)cc4F)n(C)c(=O)c(C)c32)c1 [TRAMETINIB] | – |
| > 30 µM (inactive) | > 30 µM (inactive) | > 30 µM (inactive) | > 30 µM (inactive) | > 30 µM (inactive) | > 30 µM (inactive) | > 30 µM (inactive) | > 30 µM (inactive) | > 30 µM (inactive) | > 30 µM (inactive) | > 30 µM (inactive) | > 30 µM (inactive) | CC[C@@H]1C(=O)N(C)c2cnc(Nc3ccc(C(=O)N[C@H]4CC[C@H](N5CCN(CC6CC6)CC5)CC4)cc3OC)nc2N1C(C)C [VOLASERTIB] | – |

Second part, the molecule before the results:

| SMILES | Kd [1] | Kd [2] | Kd [3] | Kd [4] | Kd [5] | Kd [6] | Kd [7] | Kd [8] | Kd [9] | Kd [10] | Kd [11] | Kd [12] | Kd [13] |
| --- | --- | --- | --- | --- | --- | --- | --- | --- | --- | --- | --- | --- | --- |
| CN1CC[C@@H](c2c(O)cc(O)c3c(=O)cc(-c4ccccc4Cl)oc23)[C@@H]1CO | > 30 µM (inactive) | > 30 µM (inactive) | > 30 µM (inactive) | > 30 µM (inactive) | 6.67 µM | > 30 µM (inactive) | > 30 µM (inactive) | > 30 µM (inactive) | > 30 µM (inactive) | > 30 µM (inactive) | – | – | – |
| CNS(=O)(=O)Nc1nccc(Cc2c(C)c3ccc(Oc4ncccn4)cc3oc2=O)c1F [AVUTOMETINIB] | > 30 µM (inactive) | > 30 µM (inactive) | > 30 µM (inactive) | > 30 µM (inactive) | > 30 µM (inactive) | – | > 30 µM (inactive) | > 30 µM (inactive) | > 30 µM (inactive) | – | > 30 µM (inactive) | > 30 µM (inactive) | – |
| Cc1cc2c(F)c(Oc3ncnn4cc(OC[C@@H](C)OC(=O)[C@H](C)N)c(C)c34)ccc2[nH]1 [BRIVANIB ALANINATE] | > 30 µM (inactive) | > 30 µM (inactive) | – | > 30 µM (inactive) | > 30 µM (inactive) | > 30 µM (inactive) | > 30 µM (inactive) | > 30 µM (inactive) | 7.48 µM (active) | > 30 µM (inactive) | > 30 µM (inactive) | – | – |
| CO[C@H]1C[C@@H]2CC[C@@H](C)[C@@](O)(O2)C(=O)C(=O)N2CCCC[C@H]2C(=O)O[C@H]([C@H](C)C[C@@H]2CC[C@@H](OCCO)[C@H](OC)C2)CC(=O)[C@H](C)/C=C(\C)[C@@H](O)[C@@H](OC)C(=O)[C@H](C)C[C@H](C)/C=C/C=C/C=C/1C [EVEROLIMUS] | > 30 µM (inactive) | > 30 µM (inactive) | > 30 µM (inactive) | > 30 µM (inactive) | > 30 µM (inactive) | > 30 µM (inactive) | > 30 µM (inactive) | > 30 µM (inactive) | > 30 µM (inactive) | > 30 µM (inactive) | > 30 µM (inactive) | – | – |
| COc1cc2nccc(Oc3ccc(NC(=O)NC4CC4)c(Cl)c3)c2cc1C(N)=O [LENVATINIB] | > 30 µM (inactive) | – | > 30 µM (inactive) | > 30 µM (inactive) | > 30 µM (inactive) | – | > 30 µM (inactive) | > 30 µM (inactive) | – | > 30 µM (inactive) | > 30 µM (inactive) | > 30 µM (inactive) | – |
| O=C(O)[C@]1(Cc2cccc(Nc3nccs3)n2)CC[C@@H](Oc2cccc(Cl)c2F)CC1 [MK-5108] | – | > 30 µM (inactive) | > 30 µM (inactive) | > 30 µM (inactive) | > 30 µM (inactive) | > 30 µM (inactive) | > 30 µM (inactive) | > 30 µM (inactive) | 0.388 µM (active) | > 30 µM (inactive) | > 30 µM (inactive) | > 30 µM (inactive) | – |
| Cc1ccc(-n2nc(C(C)(C)C)cc2NC(=O)NCc2cc(F)ccc2Oc2ccc3c(cnn3CCO)c2)cc1 [PEXMETINIB] | > 30 µM (inactive) | > 30 µM (inactive) | > 30 µM (inactive) | > 30 µM (inactive) | > 30 µM (inactive) | 3.13 µM (active) | > 30 µM (inactive) | > 30 µM (inactive) | 1.2 µM (active) | > 30 µM (inactive) | > 30 µM (inactive) | > 30 µM (inactive) | – |
| CN1CCC(COc2cnc(-c3cccc(Cn4nc(-c5cccc(C#N)c5)ccc4=O)c3)nc2)CC1 [TEPOTINIB] | > 30 µM (inactive) | – | > 30 µM (inactive) | > 30 µM (inactive) | – | > 30 µM (inactive) | > 30 µM (inactive) | – | > 30 µM (inactive) | > 30 µM (inactive) | > 30 µM (inactive) | > 30 µM (inactive) | > 30 µM (inactive) |
